# Test results published in US20230085307A1, “PYRIDAZINONE COMPOUND AND HERBICIDE” (NISSAN CHEMICAL CORPORATION, priority 2019, published 2023).
# System: late watergrass
# Assay: Test Example 1: herbicidal activity, application before weed generation under submerged conditions (Table 16, symbol A)
# Format: in vivo, late watergrass (Echinochloa oryzicola)
# Conditions: amount of applied herbicide 320 g/ha
# How it was run: (§1)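 Submerged Wagner pots (alluvial soil, 4 cm water) sown with weed seeds and planted with 2.5-leaf rice seedlings; emulsifiable concentrate diluted in water applied to water surface on sowing day. Held in greenhouse at 25-30 °C; injury scored 0-5 by herbicidal rate after three weeks.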
row,Compound,"Herbicidal effect, A: late watergrass"
1,CCSc1ccc(-c2sc3c(C)cccc3c2-c2c(O)c(C)nn(C)c2=O)cc1 [4-124],4 (Herbicidal rate of 70% or more and less than 90%)

# System: Japanese bulrush
# Assay: Test Example 1: herbicidal activity, application before weed generation under submerged conditions (Table 16, symbol B)
# Format: in vivo, Japanese bulrush (Schoenoplectus juncoides)
# Conditions: amount of applied herbicide 320 g/ha
# How it was run: as §1
row,Compound,"Herbicidal effect, B: Japanese bulrush"
1,CCSc1ccc(-c2sc3c(C)cccc3c2-c2c(O)c(C)nn(C)c2=O)cc1 [4-124],3 (Herbicidal rate of 40% or more and less than 70%)

# System: oval-leafed pondweed
# Assay: Test Example 1: herbicidal activity, application before weed generation under submerged conditions (Table 16, symbol C)
# Format: in vivo, oval-leafed pondweed (Monochoria vaginalis)
# Conditions: amount of applied herbicide 320 g/ha
# How it was run: as §1
row,Compound,"Herbicidal effect, C: oval-leafed pondweed"
1,CCSc1ccc(-c2sc3c(C)cccc3c2-c2c(O)c(C)nn(C)c2=O)cc1 [4-124],2 (Herbicidal rate of 20% or more and less than 40%)

# System: late watergrass
# Assay: Test Example 2: herbicidal activity, application during weed generation under submerged conditions (Table 17, symbol A)
# Format: in vivo, late watergrass (Echinochloa oryzicola)
# Conditions: AAH 320 g/ha; application during weed generation, submerged conditions
# How it was run: (§2)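 Wagner pot, alluvial soil, 4 cm flood; mixed sowing of all species; greenhouse 25° C.–30° C. Emulsifiable formulation, water-diluted to predetermined dose, applied to paddy water at 1–2 leaf stage. Effect rated at 3 wk using the earlier test's scoring criteria.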
row,Compound,"herbicidal effect rating, A: late watergrass"
1,CCSc1ccc(-c2sc3c(C)cccc3c2-c2c(O)c(C)nn(C)c2=O)cc1 [4-124],3 (Herbicidal rate of 40% or more and less than 70%)

# System: oval-leafed pondweed
# Assay: Test Example 2: herbicidal activity, application during weed generation under submerged conditions (Table 17, symbol C)
# Format: in vivo, oval-leafed pondweed (Monochoria vaginalis)
# Conditions: AAH 320 g/ha; application during weed generation, submerged conditions
# How it was run: as §2
row,Compound,"herbicidal effect rating, C: oval-leafed pondweed"
1,CCSc1ccc(-c2sc3c(C)cccc3c2-c2c(O)c(C)nn(C)c2=O)cc1 [4-124],0 (Herbicidal rate of 5% or less (almost no effect))

# System: barnyard grass
# Assay: Test Example 3: herbicidal effect by foliage application, Wagner pot (Table 18, symbol H)
# Format: in vivo, barnyard grass (Echinochloa crus-galli)
# Conditions: 320 g/ha
# How it was run: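 Plants were sown in alluvial soil held under 0.1–0.5 cm standing water and grown 14 days in a greenhouse at 25–30 °C. An emulsifiable formulation, water-diluted to the set dose, was then sprayed onto the foliage, and effects were scored three weeks later using previously defined criteria.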
row,Compound,herbicidal effect on barnyard grass (H)
1,CCSc1ccc(-c2sc3c(C)cccc3c2-c2c(O)c(C)nn(C)c2=O)cc1 [4-124],5 (Herbicidal rate of 90% or more (almost completely withered))

# System: southern crabgrass
# Assay: Test Example 4: herbicidal effect by soil treatment (Table 19, symbol F)
# Format: in vivo, southern crabgrass (Digitaria ciliaris)
# Conditions: amount of applied herbicide 320 g/ha
# How it was run: (§3)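 Pre-emergence style soil spray: seeds under ~1.5 cm sterilized diluvial soil received a uniform coat of emulsion diluted to the predetermined herbicide amount. Greenhouse 25–30° C; readout at week three on previously defined criteria.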
row,Compound,"Herbicidal effect by soil treatment, F: southern crabgrass"
1,CCSc1ccc(-c2sc3c(C)cccc3c2-c2c(O)c(C)nn(C)c2=O)cc1 [4-124],4 (Herbicidal rate of 70% or more and less than 90%)

# System: wild oat
# Assay: Test Example 4: herbicidal effect by soil treatment (Table 19, symbol I)
# Format: in vivo, wild oat (Avena fatua)
# Conditions: amount of applied herbicide 320 g/ha
# How it was run: as §3
row,Compound,"Herbicidal effect by soil treatment, I: wild oat"
1,CCSc1ccc(-c2sc3c(C)cccc3c2-c2c(O)c(C)nn(C)c2=O)cc1 [4-124],0 (Herbicidal rate of 5% or less (almost no effect))

# System: windgrass
# Assay: Test Example 4: herbicidal effect by soil treatment (Table 19, symbol L)
# Format: in vivo, windgrass (Apera spica-venti)
# Conditions: amount of applied herbicide 320 g/ha
# How it was run: as §3
row,Compound,"Herbicidal effect by soil treatment, L: windgrass"
1,CCSc1ccc(-c2sc3c(C)cccc3c2-c2c(O)c(C)nn(C)c2=O)cc1 [4-124],0 (Herbicidal rate of 5% or less (almost no effect))

# System: velvetleaf
# Assay: Test Example 4: herbicidal effect by soil treatment (Table 19, symbol M)
# Format: in vivo, velvetleaf (Abutilon theophrasti)
# Conditions: amount of applied herbicide 320 g/ha
# How it was run: as §3
row,Compound,"Herbicidal effect by soil treatment, M: velvetleaf"
1,CCSc1ccc(-c2sc3c(C)cccc3c2-c2c(O)c(C)nn(C)c2=O)cc1 [4-124],3 (Herbicidal rate of 40% or more and less than 70%)

# System: redroot pigweed
# Assay: Test Example 4: herbicidal effect by soil treatment (Table 19, symbol N)
# Format: in vivo, redroot pigweed (Amaranthus retroflexus)
# Conditions: amount of applied herbicide 320 g/ha
# How it was run: as §3
row,Compound,"Herbicidal effect by soil treatment, N: redroot pigweed"
1,CCSc1ccc(-c2sc3c(C)cccc3c2-c2c(O)c(C)nn(C)c2=O)cc1 [4-124],5 (Herbicidal rate of 90% or more (almost completely withered))

# System: chickweed
# Assay: Test Example 4: herbicidal effect by soil treatment (Table 19, symbol P)
# Format: in vivo, common chickweed (Stellaria media)
# Conditions: amount of applied herbicide 320 g/ha
# How it was run: as §3
row,Compound,"Herbicidal effect by soil treatment, P: chickweed"
1,CCSc1ccc(-c2sc3c(C)cccc3c2-c2c(O)c(C)nn(C)c2=O)cc1 [4-124],4 (Herbicidal rate of 70% or more and less than 90%)

# System: persian speedwell
# Assay: Test Example 4: herbicidal effect by soil treatment (Table 19, symbol R)
# Format: in vivo, Persian speedwell (Veronica persica)
# Conditions: amount of applied herbicide 320 g/ha
# How it was run: as §3
row,Compound,"Herbicidal effect by soil treatment, R: persian speedwell"
1,CCSc1ccc(-c2sc3c(C)cccc3c2-c2c(O)c(C)nn(C)c2=O)cc1 [4-124],4 (Herbicidal rate of 70% or more and less than 90%)

# System: southern crabgrass
# Assay: Test Example 5: herbicidal effect by foliage application, plastic box (Table 20, symbol F)
# Format: in vivo, southern crabgrass (Digitaria ciliaris)
# Conditions: amount of applied herbicide 320 g/ha; foliage application after 14-day growth; evaluated three weeks after application
# How it was run: (§4)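 Plants were sown into sterilized diluvial soil under about 1.5 cm cover and kept in a greenhouse at 25° C. to 30° C. Fourteen days on, foliage received an even spray of the diluted emulsion. Herbicidal or crop effect was judged three weeks afterwards.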
row,Compound,"Herbicidal effect by foliage application, F: southern crabgrass"
1,CCSc1ccc(-c2sc3c(C)cccc3c2-c2c(O)c(C)nn(C)c2=O)cc1 [4-124],3 (Herbicidal rate of 40% or more and less than 70%)

# System: green foxtail
# Assay: Test Example 5: herbicidal effect by foliage application, plastic box (Table 20, symbol G)
# Format: in vivo, green foxtail (Setaria viridis)
# Conditions: amount of applied herbicide 320 g/ha; foliage application after 14-day growth; evaluated three weeks after application
# How it was run: as §4
row,Compound,"Herbicidal effect by foliage application, G: green foxtail"
1,CCSc1ccc(-c2sc3c(C)cccc3c2-c2c(O)c(C)nn(C)c2=O)cc1 [4-124],5 (Herbicidal rate of 90% or more (almost completely withered))

# System: redroot pigweed
# Assay: Test Example 5: herbicidal effect by foliage application, plastic box (Table 20, symbol N)
# Format: in vivo, redroot pigweed (Amaranthus retroflexus)
# Conditions: amount of applied herbicide 320 g/ha; foliage application after 14-day growth; evaluated three weeks after application
# How it was run: as §4
row,Compound,"Herbicidal effect by foliage application, N: redroot pigweed"
1,CCSc1ccc(-c2sc3c(C)cccc3c2-c2c(O)c(C)nn(C)c2=O)cc1 [4-124],5 (Herbicidal rate of 90% or more (almost completely withered))
